Patent publication US7763426B2, “Probes and methods for detection of Escheridia coli and antibiotic resistance” (priority 2004, dated 2010)
“Also recorded” adds a separate entry of the source. {Fluorescein} = fluorescein label (binding site for anti-fluorescein Fab-HRP); {Biotin} = biotin (capture probe anchor)

What was measured:
bacterial 16S rRNA = assay: Amperometric detection of bacterial 16S rRNA, statements over several targets (Examples 2, 3); format: binding; conditions: previous studies; no gap between hybridization sites
Protocol: Sensor characterization and surface functional layer preparation. Microfabricated electrochemical sensor arrays with an alkanethiolate self-assembled monolayer (SAM) were obtained from GeneFluidics (Monterey Park, Calif.). SAM integrity was confirmed by cyclic voltammetry (CV) (1) using a 16-channel potentiostat (GeneFluidics). After CV characterization, sensor arrays were washed and dried. Washing steps were carried out by applying a stream of deionized H2O to the sensor surface for approximately 2-3 sec followed by 5 sec of drying under a stream of nitrogen. To functionalize the sensor surface, 2.5 μl of 0.5 U/ml streptavidin (Calbiochem, San Diego, Calif.) in 100 mM phosphate buffered saline, pH 7.4 was added to the alkanethiol activated sensors, incubated for 10 min at room temperature and washed off. Biotinylated capture probes (2.5 μl, 1 μM in GeneFluidics' Probe Diluent) were added to the streptavidin-coated sensors. […]
Amperometric Detection of bacterial 16S rRNA. […] Amperometric current vs. time was measured using a multichannel potentiostat (GeneFluidics). The voltage was fixed at −200 mV (vs. reference), and the electroreduction current was measured at 60 sec after the HRP redox reaction reached steady state. All samples were analyzed in duplicate. […] Positive signals are determined by comparing the signals with the background using paired T test. […]

[1] = tested on: 16S rRNA in lysates of uropathogens; assay: Species specificity of uropathogen probe pairs with the electrochemical sensor array (Example 1); format: binding; conditions: probe pairs of Table 1

UNI: Universal Bacterial probe pair: capture 797 (27 mer) SEQ ID NO: 13, detector 766 (31 mer) SEQ ID NO: 14 (DNA 1 CATCGTTTACGGCGTGGACTACCAGGG; DNA 2 TATCTAATCCTGTTTGCTCCCCACGCTTTCG; DNA 1: DNA, 5' {Biotin}, backbone and methylation of C not given here; DNA 2: DNA, 5' {Fluorescein}, backbone and methylation of C not given here)
higher signals than the species-specific probes with 6 bp gap (bacterial 16S rRNA): 1.5-4 fold | Species detected [1]: Cf, Ea, Ec, Ef, El, Eo, Ko, Kp,; also recorded: Mm, Pa, Pm, Ss, Sa | Species not detected [1]: None
